Test: xn = mol fraction of the nth substance listed
Conditions: 101 kPa

Cc1ncc(C[n+]2csc(CCO)c2C)c(N)n1.Cl.[Cl-] + CCCCCCCCCCCCOS(=O)(=O)[O-].[Na+] + O
electrical conductivity [S/m]
Conditions | 308.15 K | 318.15 K
x2 = 0, x1 = 1.8e-07 | 0.00293 | 0.00286
x2 = 0, x1 = 9e-07 | 0.00544 | 0.00608
x2 = 0, x1 = 1.8e-06 | 0.00836 | 0.00964
x2 = 7.35e-06, x1 = 1.8e-07 | 0.00693 | 0.00698
x2 = 7.35e-06, x1 = 9e-07 | 0.00954 | 0.0104
x2 = 7.35e-06, x1 = 1.8e-06 | 0.0129 | 0.0147
x2 = 1.463e-05, x1 = 1.8e-07 | 0.0109 | 0.0112
x2 = 1.463e-05, x1 = 9e-07 | 0.0135 | 0.0145
x2 = 1.463e-05, x1 = 1.8e-06 | 0.0172 | 0.0195
x2 = 2.18e-05, x1 = 1.8e-07 | 0.0147 | 0.0153
x2 = 2.18e-05, x1 = 9e-07 | 0.0175 | 0.0186
x2 = 2.18e-05, x1 = 1.8e-06 | 0.0213 | 0.0241
x2 = 2.901e-05, x1 = 1.8e-07 | 0.0186 | 0.0195
x2 = 2.901e-05, x1 = 9e-07 | 0.0215 | 0.0226
x2 = 2.901e-05, x1 = 1.8e-06 | 0.0254 | 0.0286
x2 = 3.604e-05, x1 = 1.8e-07 | 0.0224 | 0.0235
x2 = 3.604e-05, x1 = 9e-07 | 0.0254 | 0.0266
x2 = 3.604e-05, x1 = 1.8e-06 | 0.0296 | 0.033
x2 = 4.307e-05, x1 = 1.8e-07 | 0.026 | 0.0276
x2 = 4.307e-05, x1 = 9e-07 | 0.0293 | 0.0306
x2 = 4.307e-05, x1 = 1.8e-06 | 0.0336 | 0.0375
x2 = 4.991e-05, x1 = 1.8e-07 | 0.0297 | 0.0315
x2 = 4.991e-05, x1 = 9e-07 | 0.0331 | 0.0346
x2 = 4.991e-05, x1 = 1.8e-06 | 0.0376 | 0.0417
x2 = 5.676e-05, x1 = 1.8e-07 | 0.0333 | 0.0355
x2 = 5.676e-05, x1 = 9e-07 | 0.0367 | 0.0386
x2 = 5.676e-05, x1 = 1.8e-06 | 0.0416 | 0.0458
x2 = 6.361e-05, x1 = 1.8e-07 | 0.037 | 0.0393
x2 = 6.361e-05, x1 = 9e-07 | 0.0404 | 0.0425
x2 = 6.361e-05, x1 = 1.8e-06 | 0.0455 | 0.0498
x2 = 7.027e-05, x1 = 1.8e-07 | 0.0405 | 0.043
x2 = 7.027e-05, x1 = 9e-07 | 0.0441 | 0.0464
x2 = 7.028e-05, x1 = 1.8e-06 | 0.0493 | 0.0537
x2 = 7.694e-05, x1 = 1.8e-07 | 0.044 | 0.0467
x2 = 7.694e-05, x1 = 9e-07 | 0.0477 | 0.0503
x2 = 7.694e-05, x1 = 1.8e-06 | 0.0529 | 0.0576
x2 = 8.361e-05, x1 = 1.8e-07 | 0.0473 | 0.0503
x2 = 8.361e-05, x1 = 9e-07 | 0.0513 | 0.0542
x2 = 8.361e-05, x1 = 1.8e-06 | 0.0564 | 0.0614
x2 = 9.009e-05, x1 = 1.8e-07 | 0.0507 | 0.0539
x2 = 9.009e-05, x1 = 9e-07 | 0.0547 | 0.058
x2 = 9.009e-05, x1 = 1.8e-06 | 0.0597 | 0.0651
x2 = 9.658e-05, x1 = 1.8e-07 | 0.054 | 0.0576
x2 = 9.658e-05, x1 = 9e-07 | 0.0581 | 0.0618
x2 = 9.658e-05, x1 = 1.8e-06 | 0.0627 | 0.0686
x2 = 0.0001031, x1 = 1.8e-07 | 0.0571 | 0.0611
x2 = 0.0001031, x1 = 9e-07 | 0.0612 | 0.0653
x2 = 0.0001031, x1 = 1.8e-06 | 0.0656 | 0.0721
x2 = 0.0001094, x1 = 1.8e-07 | 0.0601 | 0.0643
x2 = 0.0001094, x1 = 9e-07 | 0.0641 | 0.0687
x2 = 0.0001094, x1 = 1.8e-06 | 0.0684 | 0.0754
x2 = 0.0001157, x1 = 1.8e-07 | 0.0629 | 0.0676
x2 = 0.0001157, x1 = 9e-07 | 0.0668 | 0.0719
x2 = 0.0001157, x1 = 1.8e-06 | 0.071 | 0.0784
x2 = 0.000122, x1 = 1.8e-07 | 0.0658 | 0.0707
x2 = 0.000122, x1 = 9e-07 | 0.0696 | 0.075
x2 = 0.000122, x1 = 1.8e-06 | 0.0734 | 0.0813
x2 = 0.0001281, x1 = 1.8e-07 | 0.0684 | 0.0736
x2 = 0.0001281, x1 = 9e-07 | 0.0725 | 0.0777
x2 = 0.0001281, x1 = 1.8e-06 | 0.0755 | 0.0841
x2 = 0.0001342, x1 = 1.8e-07 | 0.0709 | 0.0764
x2 = 0.0001342, x1 = 9e-07 | 0.0746 | 0.0802
x2 = 0.0001342, x1 = 1.8e-06 | 0.0776 | 0.0868
x2 = 0.0001404, x1 = 1.8e-07 | 0.0732 | 0.079
x2 = 0.0001404, x1 = 9e-07 | 0.0766 | 0.0822
x2 = 0.0001404, x1 = 1.8e-06 | 0.0797 | 0.0894
x2 = 0.0001465, x1 = 1.8e-07 | 0.0752 | 0.0816
x2 = 0.0001465, x1 = 9e-07 | 0.0783 | 0.0841
x2 = 0.0001465, x1 = 1.8e-06 | 0.0817 | 0.0919
x2 = 0.0001524, x1 = 1.8e-07 | 0.077 | 0.0838
x2 = 0.0001524, x1 = 9e-07 | 0.08 | 0.086
x2 = 0.0001524, x1 = 1.8e-06 | 0.0836 | 0.0943
x2 = 0.0001584, x1 = 1.8e-07 | 0.0786 | 0.0858
x2 = 0.0001584, x1 = 9e-07 | 0.0816 | 0.0878
x2 = 0.0001584, x1 = 1.8e-06 | 0.0855 | 0.0962
x2 = 0.0001641, x1 = 1.8e-07 | 0.0802 | 0.0876
x2 = 0.0001641, x1 = 9e-07 | 0.0831 | 0.0895
x2 = 0.0001641, x1 = 1.8e-06 | 0.0874 | 0.0981
x2 = 0.0001699, x1 = 1.8e-07 | 0.0817 | 0.0893
x2 = 0.0001699, x1 = 9e-07 | 0.0846 | 0.0911
x2 = 0.0001699, x1 = 1.8e-06 | 0.0893 | 0.1
x2 = 0.0001757, x1 = 1.8e-07 | 0.083 | 0.0909
x2 = 0.0001757, x1 = 9e-07 | 0.086 | 0.0927
x2 = 0.0001757, x1 = 1.8e-06 | 0.091 | 0.102
x2 = 0.0001814, x1 = 1.8e-07 | 0.0843 | 0.0924
x2 = 0.0001814, x1 = 9e-07 | 0.0874 | 0.0943
x2 = 0.0001814, x1 = 1.8e-06 | 0.0928 | 0.104
x2 = 0.000187, x1 = 1.8e-07 | 0.0855 | 0.0939
x2 = 0.000187, x1 = 9e-07 | 0.0887 | 0.0957
x2 = 0.000187, x1 = 1.8e-06 | 0.0946 | 0.106
x2 = 0.0001928, x1 = 1.8e-07 | 0.0867 | 0.0952
x2 = 0.0001928, x1 = 9e-07 | 0.09 | 0.0974
x2 = 0.0001928, x1 = 1.8e-06 | 0.0964 | 0.107
x2 = 0.0001982, x1 = 1.8e-07 | 0.0879 | 0.0966
x2 = 0.0001982, x1 = 9e-07 | 0.0912 | 0.0991
x2 = 0.0001982, x1 = 1.8e-06 | 0.0982 | 0.109
x2 = 0.0002038, x1 = 1.8e-07 | 0.089 | 0.0979
x2 = 0.0002038, x1 = 9e-07 | 0.0924 | 0.101
x2 = 0.0002038, x1 = 1.8e-06 | 0.0997 | 0.111
x2 = 0.0002092, x1 = 1.8e-07 | 0.0901 | 0.0992
x2 = 0.0002092, x1 = 9e-07 | 0.0936 | 0.102
x2 = 0.0002092, x1 = 1.8e-06 | 0.101 | 0.112
x2 = 0.0002147, x1 = 1.8e-07 | 0.0913 | 0.1
x2 = 0.0002148, x1 = 9e-07 | 0.0949 | 0.104
x2 = 0.0002148, x1 = 1.8e-06 | 0.102 | 0.114
x2 = 0.00022, x1 = 1.8e-07 | 0.0925 | 0.102
x2 = 0.00022, x1 = 9e-07 | 0.0961 | 0.105
x2 = 0.00022, x1 = 1.8e-06 | 0.104 | 0.115
x2 = 0.0002254, x1 = 1.8e-07 | 0.0937 | 0.103
x2 = 0.0002254, x1 = 9e-07 | 0.0974 | 0.107
x2 = 0.0002254, x1 = 1.8e-06 | 0.105 | 0.116
x2 = 0.0002306, x1 = 1.8e-07 | 0.0949 | 0.104
x2 = 0.0002306, x1 = 9e-07 | 0.0986 | 0.108
x2 = 0.0002306, x1 = 1.8e-06 | 0.106 | 0.117
x2 = 0.0002358, x1 = 1.8e-07 | 0.0962 | 0.105
x2 = 0.0002358, x1 = 9e-07 | 0.0998 | 0.109
x2 = 0.0002358, x1 = 1.8e-06 | 0.107 | 0.119
x2 = 0.0002411, x1 = 1.8e-07 | 0.0973 | 0.106
x2 = 0.0002411, x1 = 9e-07 | 0.101 | 0.111
x2 = 0.0002411, x1 = 1.8e-06 | 0.108 | 0.12

Reference: the CheMixHub ionic liquid set
